Where two headings read alike, the source gives them in different places.
Tests used:
[1] = for Absorbance: 400 nm; for Cilastatin content: HPLC
Method: Then, the glass vial was sealed and heated at 80° C. for 4 hours (to obtain a nitrogen-purged, heated sample). The aqueous solution before heating and the two samples prepared above were measured for absorbance, which served as an index for the degree of coloration, and also analyzed by HPLC to confirm the content of cilastatin.
The analysis conditions are detailed below.
Absorbance Measurement Conditions:
Equipment: Hitachi U-3900
Optical path length: 1 cm
HPLC Analysis Conditions:
Detector: Ultraviolet absorptiometer (measurement wavelength: 216 nm)
Column: 1.7 μm octadecylsilylated silica gel column (Acquity BEH C18, produced by Waters), 2.1 mm I.D., 50 mm long
Column temperature: 40° C.
Mobile phase: 25 mM phosphate buffer containing 9.5% acetonitrile (pH 4.25)
Amount of sample injected: 5 μL (prepared to 100 μg/mL)
Retention time: Cilastatin (about 2.6 min.)

[2] = N2-purged headspace, heated 80° C. for 4 hours

SMILES: CC1(C)C[C@@H]1C(=O)N/C(=C\CCCCSC[C@H](N)C(=O)O)C(=O)O [cilastatin sodium, (Z)-7-[[(R)-2-amino-2-carboxyethyl]thio]-2-[[[(S)-2,2-dimethylcyclopropyl]carbonyl]amino]-2-heptenoic acid]
- appearance according to visual observation ([1]; 200 mg/mL aqueous solution): slightly yellow
- pH at the time of preparation ([1]; 200 mg/mL aqueous solution): 6.79
- Absorbance [1, 2]: 0.166
- Cilastatin content [1, 2]: 99.15%
- Absorbance ([1]; before heating, 200 mg/mL aqueous solution, optical path 1 cm): 0.040
- Cilastatin content ([1]; before heating): 98.99%
- Absorbance ([1]; heated sample: sealed glass vial, 80° C. for 4 hours): 0.203
- content of cilastatin (after storage at 45° C.): decreased slightly
- color of solution (after storage at 45° C. for 23 days): yellow
- color of solution (after storage at 45° C. for 65 days): brown
- color of solution (at the time of preparation, deionized water): slightly yellow

From patent US20230165792A1, “LIQUID FORMULATION AND PHARMACEUTICAL PRODUCT CONTAINING CILASTATIN” (Denka Company Limited, priority 2020, published 2023)
